Laboratory results from patent US9187397B2 (STC.UNM, priority 2004, dated 2015).
Entries after “also recorded” stand apart in the source; their conditions may differ. Like-named read-outs stand apart in the source and are kept apart here.

How the values were obtained:
AP-1 = AP-1 luciferase reporter cellular assay (293/AP1-luc, PMA-stimulated); assay type: cell-based, human; settings: for activity in the AP-1 cellular assay (screen): 15 μM, compared with curcumin; for IC50: Homo sapiens
Method: This cell line is obtained by co-transfection of pAP1-luc and pTK-hyg containing plasmids followed by the addition of hygromycin (200 μg/ml) to maintain cell selection.
After 24 hr, the cells had reached approximately 60% confluency. […] Plate wells were gently washed with PBS, pH 7.4, and lysed with passive lysis buffer (1×, 100 μl, Promega). The subsequent chemiluminescent lysates were analyzed with the Luciferase Assay System (Promega) utilizing a TD-20/20 luminometer. The relative light units (photons) were determined by the addition of firefly luciferase substrate (75 μl) to cell lysate (10 μl). The light units were then normalized to the amount of protein in the well (mg/ml) with BCA™ Protein Assay Kit (Pierce) and standardized to percent of control (PMA).
(§1) This cell line is stably transfected with a luciferase reporter controlled by an AP-1 dependent promoter. The cell is stimulated with phorbol ester which activates AP-1. AP-1 then binds to one of three promoter regions on the cells DNA leading to the production of a luciferase enzyme. Luciferin is added to the cell lysates and the luciferase enzyme catalyzes a cleavage of luciferin leading to the emission of light.

NF-κB = NF-κB luciferase reporter cellular assay (293T/NF-κB-luc, TNFα-stimulated); assay type: cell-based, human; settings: for inhibition of the activation of NF-κB by TNFα (screen): 10 μM, compared with curcumin; for IC50: Homo sapiens, HEK-293T, inhibition of TNF-α-induced NF-κB activation, Panomics 293T/NFκB-luc, second Table 12, read-out: IC50
Method: The cell line is derived from human 293T embryonic kidney cells expressing the large T antigen containing a chromosomal integration of a luciferase reporter construct regulated by 6 copies of the NF-κB response element (Panomics, Inc.). This stable clonal cell line is obtained by co-transfection of pNF-κB-luc and pTK-hyg containing plasmids followed by the addition of hygromycin (200 μg/ml) to maintain cell selection.
The cell line was grown in a humidified atmosphere at 37° C. in 5% CO2/95% air and maintained in Dulbecco's Modified Eagle's Medium (DMEM-high glucose containing 4 mM glutamine) containing fetal bovine serum (FBS, 10%), sodium pyruvate (1 mM), penicillin (100 units/ml), streptomycin (100 μg/ml) and hygromycin (100 μg/m) to maintain cell selection (Gibco/Invitrogen).
The 293T/NF-κB-luc cells were re-plated 24 hr prior to treatment, into 24-well cell culture plates in media without hygromycin, to prevent it from interfering with the assay. The cells were then allowed to grow and attach, to the wells, for 24 hr in a humidified atmosphere at 37° C. in 5% CO2/95% air. […] The cells then were placed again in a humidified atmosphere at 37° C. in 5% CO2/95% air for 7 hr. Plate wells were gently washed with PBS, pH 7.4, and lysed with passive lysis buffer (1×, 100 μl, Promega). The subsequent chemiluminescent lysates were analyzed with the Luciferase Assay System (Promega) utilizing a TD-20/20 luminometer. The relative light units (photons) were determined by the addition of firefly luciferase substrate (75 μl) to cell lysate (10 μl). The light units were then normalized to the amount of protein in the well (mg/ml) with BCA™ Protein Assay Kit (Pierce) and standardized to percent of control (TNFα).
as §1, with “This assay utilized a commercially available cell line (Panomics 293T-luc cellular assay) developed for screening inhibitors of NF-κB. This” for “This”, “NF-κB” for “AP-1”, “tumor necrosis factor alpha (TNFα)” for “phorbol ester”, “NF-κB. NF-κB” for “AP-1. AP-1”, “six” for “three”, “cell's” for “cells”
This cell line was developed by Panomics for screening potential inhibitors of NF-κB. Cells are stimulated with TNF-α to express luciferase, whose activity is monitored in a chemiluminometer.
An NF-κB reporter stable cell line from human 293T embryonic kidney cells (293T/NFκB-luc) (Panomics) was grown in a humidified atmosphere at 37° C. in 5% CO2/95% air. The cells were maintained in Dulbecco's Modified Eagle's Medium (DMEM—high glucose containing 4 mM glutamine) supplemented with 10% fetal bovine serum (FBS), 1 mM sodium pyruvate, 100 units/ml penicillin, 100 μg/m streptomycin and 100 μg/ml hygromycin (Gibco/Invitrogen, Carlsbad, Calif.)) to maintain cell selection. One day prior to treatment, the 293T/NFκB-luc cells were plated into 24-well cell culture plates (Costar) at approximately 70% confluency in the above media without hygromycin. The following day cells were fed fresh media 1 hour prior to treatment. […] The cells were placed again in a humidified atmosphere at 37° C. in 5% CO2/95% air for 7 hours. Plate wells were gently washed with phosphate buffered saline, pH 7.4, and lysed with 1× passive lysis buffer (Promega). The subsequent lysates were analyzed with the Luciferase Assay System (Promega) utilizing a TD-20/20 luminometer (Turner Designs). The firefly luciferase relative light units were normalized to protein (mg/ml) with BCATM Protein Assay Kit (Pierce) and standardized to TNF-α control.

[1] = Total Radical-trapping Anti-oxidant Parameter assay (TRAP assay); design: key to TRAP: active as an antioxidant (+); settings: for TRAP: antioxidant activity
Method: This assay is also known as the Total radical-trapping anti-oxidant parameter assay (TRAP assay). For the TRAP assay (Re et al., Free Rad. Biol. […] The turquoise colored reaction was allowed to stabilize for 5 min and the absorbance monitored on a Perkin Elmer UV/Vis Lambda 2S. […] The following FIGS. 2A-2C) show the analogs active in the TRAP assay.

[2] = Ferric Reducing/Anti-oxidant Power assay (FRAP assay); design: key to FRAP: active as an antioxidant (+); settings: for activity in the FRAP assay: compared with curcumin; for FRAP: antioxidant activity
Method: Anti-oxidant activity was also measured in the Ferric reducing/anti-oxidant power assay (FRAP assay) in which the analogs are reacted with a ferric tripyridyltriazine complex. For the FRAP assay (Benzie et al., Meth. Enzymol. 1999, 299, 15-27), the ferric complex was prepared at room temperature by reaction of ferric chloride (16.7 mM) and 2,4,6-tripyridyl-s-triazine (8.33 mM) in acetate buffer (0.25 M) to pH 3.6. The FRAP reagent was used immediately after preparation. […] The reaction was mixed by vortexing, allowed to stabilize for 5 min and the absorbance recorded on a Perkin Elmer UV/Vis Lambda 2S. […] The synthetic analog of α-tocopherol (vitamin E), Trolox, was used as a reference standard (10 μM in ethanol).
The second assay used, the FRAP assay, determines the analogs abilities to reduce a Fe(III) tripyridyltriazine complex to a Fe(II) tripyridyltriazine complex. The following FIGS. 3A-3C) show analogs active in the FRAP assay.

With `COc1cc(/C=C/C(=O)/C=C/c2cc(OC)cc(OC)c2)cc(OC)c1` [20o] the “activity in the AP-1 cellular assay (screen)” value (shortened to “activity … (screen)”) (AP-1) was “more active than curcumin” and the “inhibition of the activation of NF-κB by TNFα (screen)” value (“inhibition of the activation of NF-κB” for short) (NF-κB) was “more active than curcumin”.
In the case of `O=C(/C=C/c1ccccc1O)/C=C/c1ccccc1O` [20q], the “activity … (screen)” value (AP-1) is reported as “more active than curcumin”, the IC50 (AP-1; inhibition of PMA-induced AP-1 activation, 293/AP1-luc cells, Table 10, read-out: AP-1 IC50) is reported as 11.7 µM and the “activity in the TRAP assay” value ([1]; 10 μM in ethanol, compared with curcumin) is reported as “more active than curcumin”. For the same molecule, the TRAP ([1]; 10 μM in ethanol, Table 5) was “+”, the TRAP ([1]; Table 10) was “+” and the “inhibition of the activation of NF-κB” value (NF-κB) was “more active than curcumin”.
In the case of `O=C(/C=C/c1cccc(C(F)(F)F)c1)/C=C/c1cccc(C(F)(F)F)c1` [20v], the “inhibition of the activation of NF-κB” value (NF-κB) is reported as “more active than curcumin”.
In the case of `O=C(/C=C/c1ccccc1C(F)(F)F)/C=C/c1ccccc1C(F)(F)F` [20w], the “activity … (screen)” value (AP-1) is reported as “more active than curcumin” and the “inhibition of the activation of NF-κB” value (NF-κB) is reported as “more active than curcumin”.
For `COc1cc(/C=C/C(C)=O)ccc1O` [35a], the “inhibition of the activation of NF-κB” value (NF-κB) was “more active than curcumin” and the “activity in the FRAP assay” value ([2]; 10 μM in ethanol) was “active”.
With `CC(=O)C=Cc1ccccc1O` [35q] the “activity … (screen)” value (AP-1) was “Active”.
With `COc1cc(/C=C2\CCC/C(=C\c3ccc(O)c(OC)c3)C2=O)ccc1O` [38a] the “activity … (screen)” value (AP-1) was “more active than curcumin”, the IC50 (AP-1; AP1, read-out: AP-1 IC50 (μM)) was 7.3 µM and the TRAP ([1]; 10 μM in ethanol, Table 5) was “+”. The TRAP ([1]; Table 10) was “+”, the FRAP ([2]; 10 μM in ethanol, Table 5) was “+” and the FRAP ([2]; Table 10) was “+”.
With `O=C(C1OC1c1ccccc1)C1OC1c1ccccc1` (stereo not drawn) [42b] the “inhibition of the activation of NF-κB” value (NF-κB) was “activity comparable to curcumin”.
For `O=C(O)c1ccc(C(=O)/C=C/c2ccccc2)cc1` [46ad], the “activity … (screen)” value (AP-1) was “Active” and the “activity in the FRAP assay” value ([2]; 10 μM in ethanol) was “active”.
With `N#Cc1ccc(C(=O)/C=C/c2ccccc2)cc1` [46al] the “activity … (screen)” value (AP-1) was “Active”.
For `COc1cc(/C=C/C(=O)c2ccccc2)ccc1O` [48a], the “activity … (screen)” value (AP-1) was “most active” and the “activity in the FRAP assay” value ([2]; 10 μM in ethanol) was “active”.
For `CN1C(c2ccccc2)CC(=O)CC1c1ccccc1` (stereo not drawn) [52b], the “inhibition of the activation of NF-κB” value (NF-κB) was “more active than curcumin; also recorded: activity comparable to curcumin”.
`COc1cc(/C=C/C(=O)/C(C)=C(O)/C=C/c2ccc(O)c(OC)c2)ccc1O` [Compound 2] gave an IC50 (NF-κB) of 6.7 ± 1.2 µM.
Work on `O=C(/C=C/c1cccnc1)/C=C/c1cccnc1` [Compound 3] yielded an IC50 (NF-κB) of 3.4 ± 0.2 µM.
`O=C(/C=C/c1ccccc1C(F)(F)F)/C=C/c1ccccc1C(F)(F)F` [Compound 5] showed an IC50 (NF-κB) of 5 ± 0.3 µM.
